Reference: patent US20220274967A1, “BCAT MODULATION” (Icagen, LLC, priority 2019, published 2022)

Legend:
[1] = biological target: T1, BCAT2 (Homo sapiens, UniProt O15382); experiment: BCAT2 enzyme inhibition (human); type: biochemical
T1 sequence (O15382 28-392): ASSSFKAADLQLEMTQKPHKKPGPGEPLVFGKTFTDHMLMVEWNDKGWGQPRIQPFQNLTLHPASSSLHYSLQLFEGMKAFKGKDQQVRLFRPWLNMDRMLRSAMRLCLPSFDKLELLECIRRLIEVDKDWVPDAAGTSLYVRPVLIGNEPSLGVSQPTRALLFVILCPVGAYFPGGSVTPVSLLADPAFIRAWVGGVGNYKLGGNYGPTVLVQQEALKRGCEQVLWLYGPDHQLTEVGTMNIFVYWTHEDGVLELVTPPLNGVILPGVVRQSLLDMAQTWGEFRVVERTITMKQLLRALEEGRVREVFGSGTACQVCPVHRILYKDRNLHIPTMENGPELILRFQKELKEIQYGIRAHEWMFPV
Protocol: In further embodiments, the functional modulation of BCAT2 is assayed using a cell-free assay. In various embodiments, the cell-free assay is an enzyme-coupled fluorescent assay. For example, the disclosure contemplates use of an assay that monitors the production of L-glutamate from branch-chain amino acids and α-ketoglutarate through the coupling of hBCATm activity to two additional enzymes, L-Glutamate Oxidase (L-GOx) and Horseradish Peroxidase (HRP). Specifically, L-GOx catabolizes L-glutamate to generate α-ketoglutarate and […], the latter being utilized by HRP and leading to the formation of fluorescent resorufin from the redox-sensitive dye Amplex Red. In some embodiments, the test compound is classified as a candidate compound if a decrease in L-glutamate is measured. In further embodiments, the test compound is classified as a candidate compound if a decrease in α-ketoglutarate is measured.

[2] = biological target: T2, BCAT1 (Homo sapiens, UniProt P54687); experiment: BCAT1 enzyme inhibition (human), Glutamate Glo luminescence; type: biochemical
T2 sequence (P54687 1-386): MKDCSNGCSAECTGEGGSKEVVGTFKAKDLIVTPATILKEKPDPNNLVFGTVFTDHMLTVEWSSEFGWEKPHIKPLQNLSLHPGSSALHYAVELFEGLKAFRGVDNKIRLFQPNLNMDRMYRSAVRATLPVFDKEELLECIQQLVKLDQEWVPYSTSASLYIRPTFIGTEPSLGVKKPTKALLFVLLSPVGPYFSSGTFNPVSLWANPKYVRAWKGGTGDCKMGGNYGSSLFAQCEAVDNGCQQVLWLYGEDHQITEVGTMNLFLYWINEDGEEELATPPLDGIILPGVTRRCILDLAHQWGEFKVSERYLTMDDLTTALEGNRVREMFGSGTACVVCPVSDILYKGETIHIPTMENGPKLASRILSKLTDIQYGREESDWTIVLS
Protocol: The BCAT1 inhibitory activity of selected compounds of the present disclosure were also evaluated. Compounds were prepared as up to 10 mM stock solutions generally using DMSO as the vehicle. 10-point dose response curves were generated using the Echo-550 (Labcyte) acoustic dispenser. Compound source plates ([…]) were made by serially diluting compound stocks to create 1 mM, 0.1 mM, and 0.01 mM solutions in DMSO into Echo certified LDV plates. The Echo then serially spotted 100% DMSO stock solutions into source dose response plates to generate a semi-log fold dilution scheme. 100% DMSO was added to the spotted dose response plates to bring the final volume to 5 μL, creating a 333× stock plate. 120 nL of the dose response stock plate was then spotted into the assay plate. 10 μL of assay buffer (50 mM Tris with 0.05% TWEEN-20) was then added to the plates resulting in a 4× working concentration in the assay plate. Final assay test concentration range was 3 μM to 0.0001 μM with a final DMSO concentration of 0.3%.
BCAT1 enzyme stock was first diluted to a 4× working concentration of 0.24 μg/mL in assay buffer (final assay concentration is 0.06 ug/ml). 10 μL of the 4×BCAT1 solution was then added to the previously prepared assay plate containing test compound or controls, and incubated at room temperature, protected from light, for either 10 or 60 minutes. After the compound incubation period, 20 μL of assay buffer plus 2× substrate is added to all wells (Final assay concentration of substrates is 300 μM L-leucine and 250 μM alpha-ketoglutaric acid). Enzyme reaction was then incubated for 10 minutes at room temperature. After the 10 minute incubation, the enzymatic reaction was halted with the addition of 5 μL of 0.6N HCl and incubated for 1 min. 5 μL of 1M Tris (pH 8.0) was then added to neutralize pH. 12.5 μL of the quenched assay volume was then transferred to a white, 384 well plate and 12.5 μL of Glutamate detection reagent was added (detection reagent prepared per Promega Glutamate Glo kit instructions). Plates were then incubated for 30 minutes at room temperature, protected from light. After glutamate detection incubation period, luminescence was read on BMG Novostar and relative light units was measured and exported for analysis.
Compound modulation of BCAT1 enzymatic activity was determined as follows. IC50 values were calculated in ActivityBase, using a 4-parameter fit equation. Data was normalized to maximum inhibition form the reference agent VS558CSA (at 10 μM). Relative light units were exported for analysis and % inhibition values for each well were calculated using the following formula: […]

[3] = tested on: GM00371 cells; experiment: Viability assay (Cell titer glo) in the 3-HIB assay; type: cell-based, human; conditions: Homo sapiens, 24 h, read-out: 3HIB INHIBITION IC50 (μM) MEAN GM00371 cells Viablility Assay
Protocol: Cell Plating: Cells (Coriell Institute GM00371 cells) were plated (96-well clear bottom sterile plate; Greiner 655098) at 10,000 cells/0.1 mL in Eagle's minimum essential medium (EMEM)/15% FBS (Gibco 16000-044) with a Combi dispenser in a cell culture hood and incubated at 37° C. and 5% CO2 overnight.
Compound Dilution: Compound were prepared as 33.3× intermediate dilution in DMSO in 96 well round polystyrene plates. For 30 μM final maximum start with 30 μL of 10 mM in DMSO. 10-12 1:3 serial dilutions were prepared from left to right (20 μL+40 μL DMSO). A 10× secondary dilution was prepare in EMEM by taking 7.5 μL 33.3× and transfer to replicate 96 well round polystyrene plates and then adding 242.5 μL EMEM A 1× final dilution in EMEM was prepared by taking 50 μL 10× dilution and transferring to replicate 96 well polypropylene assay block (Costar 3956) and adding 450 μL EMEM A control was prepared for maximal compound inhibition by taking 20 μL 10 mM Reference Compound A and adding 40 μL DMSO for a concentration of 3.3 mM To 7.5 μL of the 3.3 mM Reference Compound A solution and added 242.5 μL EMEM to make a 100 μM solution. The subsequent Reference Compound A solution was diluted with EMEM to achieve a final concentration of 10 μM. The structure of Reference Compound A is:
A control was prepared for maximal compound toxicity by taking 7.5 μL Reference Compound B and 242.5 μL EMEM to make […]. 50 μL of that 100 μM Reference Compound B solution was combined with 450 μL EMEM to achieve a concentration of 30 μM. The structure of Reference Compound B is
Compound Treatment: Media was aspirated from the cells and 100 μL of D-PBS (ThermoFisher 14190144) was added and then removed. 100 μL of diluted compound was added to the cells in the place and the cells were incubated at 37° C. and 5% CO2 for 24 hours.
Viability Assay: To the cells remaining in the plate 25 μL D-PBS and 25 μL Cell titer glo reagent (Promega G7572). The plate was placed on a shaker for 2 minutes, incubated at room temperature in the dark and then read on a Clariostar microplate reader.

Structure (SMILES) | IC50 [1] [nM] | IC50 [2] [nM] | IC50 [3] [µM]
CNC(=O)c1ccc2c(c1)nc(-c1ccccn1)n2[C@H]1C[C@@H](NC(=O)c2ccc(Br)s2)CC(F)(F)C1 [Compound 239] | 100 to 500 | ≥ 1000 | 0.1 to 0.5
CNC(=O)c1ccc2c(c1)nc(-c1ccccc1C(N)=O)n2[C@H]1CCC[C@@H](NC(=O)c2ccc(Br)s2)C1 [Compound 143] | < 100 | ≥ 1000 | ≥ 1
O=C(N[C@@H]1CCC[C@H](n2c(-c3ncccc3F)nc3cnccc32)C1)c1ccc(Br)s1 [Compound 284] | < 100 | 100 to 500 | ≥ 1
CNC(=O)c1cc2nc(-c3sccc3F)n([C@H]3CCC[C@@H](NC(=O)c4ccc(Cl)s4)C3)c2cc1F [Compound 230] | < 100 | 500 to 1000 | ≥ 1
CC(=O)c1ccc2c(c1)nc(-c1ccccn1)n2[C@H]1CCC[C@@H](NC(=O)c2ccc(Br)s2)C1 [Compound 196] | < 100 | ≥ 1000 | ≥ 1
CNC(=O)c1cc2nc(-c3cccc(F)c3)n(C3CCC[C@@H](NC(=O)c4ccc(Cl)s4)C3)c2cc1F (stereo partly shown) [Compound 224] | < 100 | 100 to 500 | 0.1 to 0.5
CNC(=O)c1ccc2c(c1)nc(-c1ccccc1C(F)F)n2C1CCC[C@@H](NC(=O)c2ccc(Br)s2)C1 (stereo partly shown) [Compound 223] | < 100 | < 100 | 0.1 to 0.5
CNC(=O)c1ccc2c(c1)nc(-c1ccccc1C(F)F)n2C1CCC[C@@H](NC(=O)c2ccc(Cl)s2)C1 (stereo partly shown) [Compound 222] | < 100 | 100 to 500 | 0.1 to 0.5
CNC(=O)c1ccc2c(c1)nc(-c1ccccc1C(F)F)n2C1CCC[C@@H](NC(=O)c2ccc(C#N)s2)C1 (stereo partly shown) [Compound 221] | < 100 | 100 to 500 | ≥ 1
O=C(N[C@@H]1CCC[C@H](n2c(-c3ccccc3F)nc3cccnc32)C1)c1ccc(Br)s1 [Compound 285] | < 100 | 500 to 1000 | 0.5 to 1
CNC(=O)c1cc2nc(-c3ccccc3F)n(C3CCC[C@@H](NC(=O)c4ccc(F)s4)C3)c2cc1F (stereo partly shown) [Compound 226] | < 100 | 100 to 500 | 0.5 to 1
CNC(=O)c1cc2nc(-c3ccccc3F)n([C@H]3CCC[C@@H](NC(=O)c4ccc(Cl)s4)C3)c2cc1F [Compound 206] | < 100 | < 100 | 0.1 to 0.5
CNC(=O)c1ccc2c(c1)nc(-c1ccccc1OC(F)(F)F)n2[C@H]1CCC[C@@H](NC(=O)c2ccc(Br)s2)C1 [Compound 166] | < 100 | 500 to 1000 | 0.1 to 0.5
CNC(=O)c1ccc2c(c1)nc(-c1ccccc1F)n2[C@H]1CCC[C@@H](C(=O)Nc2ccccc2)C1 [Compound 202] | > 1000 | ≥ 1000 | 
CNC(=O)c1ccc2c(c1)nc(-c1ccccn1)n2C1CCCN(C(=O)Nc2cccc(Cl)c2)C1 (stereo not shown) [Compound 217] | > 1000 | ≥ 1000 | 
CNC(=O)c1ccc2c(c1)nc(-c1c(O)ccc(F)c1F)n2[C@H]1CCC[C@@H](NC(=O)c2ccc(Br)s2)C1 [Compound 180] | < 100 | 500 to 1000 | 
CNC(=O)c1cc2nc(-c3c(F)ccc(F)c3O)n([C@H]3CCC[C@@H](NC(=O)c4ccc(Br)s4)C3)c2cc1F [Compound 233] | < 100 | 500 to 1000 | 
CCCNC(=O)c1ccc2c(c1)nc(-c1ccccn1)n2[C@@H]1CCC[C@H](NC(=O)c2ccc(Br)s2)C1 [Compound 204] | 100 to 500 | ≥ 1000 | 
O=C(N[C@@H]1CCC[C@H](n2c(-c3ccccn3)nc3cnc(F)cc32)C1)c1ccc(Br)s1 [Compound 302] | < 100 | 500 to 1000 | 
CNC(=O)c1cc2nc(-c3ccccn3)n([C@H]3CCC[C@@H](NC(=O)c4ccc(Cl)s4)C3)c2cc1O [Compound 240] | < 100 | 500 to 1000 | 
CNC(=O)c1ccc2c(c1)nc(-c1cccc(F)c1)n2C1CCCN(C(=O)Nc2ccccc2Cl)C1 (stereo not shown) [Compound 227] | > 1000 | ≥ 1000 | 
CNC(=O)c1cc2nc(-c3ccccn3)n([C@H]3CCC[C@@H](NC(=O)c4ccc(Cl)s4)C3)c2cc1Cl [Compound 235] | 500 to 1000 | ≥ 1000 | 
N#Cc1cc2nc(-c3ccccc3C#N)n(C3CCCC(NC(=O)c4ccc(Br)s4)C3)c2cn1 (stereo not shown) [Compound 306] | < 100 | ≥ 1000 | 
N#Cc1ccc2c(c1)nc(-c1ccccn1)n2[C@H]1CCC[C@@H](NC(=O)c2ccc(Br)s2)C1 [Compound 194] | < 100 | ≥ 1000 | 
CNC(=O)c1cc2nc(-c3ncccc3F)n([C@H]3CCC[C@@H](NC(=O)c4ccc(Br)s4)C3)c2cc1Cl [Compound 237] | 100 to 500 | ≥ 1000 | 
CNC(=O)c1ccc2c(c1)nc(-c1ccc(O)cn1)n2[C@H]1CCC[C@@H](NC(=O)c2ccc(C#N)s2)C1 [Compound 173] | > 1000 | ≥ 1000 | 
N#Cc1ccc2c(c1)nc(-c1ccccn1)n2[C@H]1CCC[C@@H](NC(=O)c2ccc(Cl)s2)C1 [Compound 195] | < 100 | ≥ 1000 | 
